Experimental findings from PubChem BioAssay AID292 (DTP/NCI, 2004) are described below.

Several values for one entry are separate records, joined by “and”; a condition that tells them apart may be missing. Equal entries are not always repeated. Inconclusive results and toxic doses are left out.

This assay relates to B6C3F1 mice, ip Sarcoma M5076, median survival T/C. Nature of the assay: NCI In Vivo Anticancer Drug Screen. Data for tumor model Sarcoma M5076 (intraperitoneal) in B6C3F1 mice. As to conditions: endpoint: median survival time, higher = longer survival. Put shortly: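 Antitumour effect is judged in tumour-bearing mice by comparing survival after compound dosing against vehicle-only animals, reported as T/C.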

[1] abbreviates: dose: 50.0 mg/kg/injection, schedule: Q04DX004 (ip), vehicle: Klucel (hydroxypropylcellulose) (HPC).
The mark [2] stands for this setting: dose: 100.0 mg/kg/injection, schedule: Q04DX004 (ip), vehicle: Klucel (hydroxypropylcellulose) (HPC).
Setting [3] is: dose: 200.0 mg/kg/injection, schedule: Q04DX004 (ip), vehicle: Klucel (hydroxypropylcellulose) (HPC).
[4] abbreviates: dose: 400.0 mg/kg/injection, schedule: Q04DX004 (ip), vehicle: Klucel (hydroxypropylcellulose) (HPC).
Setting [5] is: dose: 25.0 mg/kg/injection, schedule: Q04DX004 (ip), vehicle: saline with Tween-80.
Where [6] appears, read: dose: 50.0 mg/kg/injection, schedule: Q04DX004 (ip), vehicle: saline with Tween-80.
Where [7] appears, read: dose: 100.0 mg/kg/injection, schedule: Q04DX004 (ip), vehicle: saline with Tween-80.
The mark [8] stands for this setting: dose: 200.0 mg/kg/injection, schedule: Q04DX004 (ip), vehicle: saline with Tween-80.
Where [9] appears, read: dose: 400.0 mg/kg/injection, schedule: Q04DX004 (ip), vehicle: saline with Tween-80.

As to `CC1=C[P+](c2ccccc2)(c2ccccc2)C=C(c2ccccc2)O1`, the T/C is 110 % of control (dose: 1.25 mg/kg/injection, schedule: Q04DX004 (ip), vehicle: saline + alcohol); 110 % of control (dose: 5.0 mg/kg/injection, schedule: Q04DX004 (ip), vehicle: saline + alcohol); 117 % of control (dose: 10.0 mg/kg/injection, schedule: Q04DX004 (ip), vehicle: saline + alcohol).
As to `CC1C=NNC1=O` (stereo unspecified), the T/C was 103 % of control under setting [1]; 101 % of control under setting [2]; 121 % of control under setting [3]; 102 % of control under setting [4]; 112 % of control (dose: 800.0 mg/kg/injection, schedule: Q04DX004 (ip), vehicle: Klucel (hydroxypropylcellulose) (HPC)).
For `Nc1nc(=S)c2[nH]cnc2[nH]1`, the T/C was 163 % of control (dose: 3.0 mg/kg/injection, schedule: Q01DX004 (ip), vehicle: Klucel (hydroxypropylcellulose) (HPC)); 178 % of control (dose: 6.0 mg/kg/injection, schedule: Q01DX004 (ip), vehicle: Klucel (hydroxypropylcellulose) (HPC)); 182 % of control (dose: 12.0 mg/kg/injection, schedule: Q01DX004 (ip), vehicle: Klucel (hydroxypropylcellulose) (HPC)); 175 % of control (dose: 24.0 mg/kg/injection, schedule: Q04DX004 (ip), vehicle: Klucel (hydroxypropylcellulose) (HPC)).
For `CC1OC(O[C@H]2/C=C/C=C/C=C/C=C/C=C/C=C/C=C/[C@H](C)[C@@H](O)[C@@H](C)[C@H](C)OC(=O)C[C@H](O)C[C@H](O)CC[C@@H](O)[C@H](O)C[C@H](O)C[C@]3(O)C[C@H](O)[C@@H](C(=O)O)[C@H](C2)O3)C(O)C(N)C1O` (stereo partly specified), the T/C by setting is: (dose: 3.12 mg/kg/injection, schedule: Q04DX004 (ip), vehicle: suspension in saline) 97 % of control; (dose: 6.25 mg/kg/injection, schedule: Q04DX004 (ip), vehicle: suspension in saline) 105 % of control; (dose: 12.5 mg/kg/injection, schedule: Q04DX004 (ip), vehicle: suspension in saline) 100 % of control and 101 % of control; (dose: 25.0 mg/kg/injection, schedule: Q04DX004 (ip), vehicle: suspension in saline) 100 % of control and 109 % of control; (dose: 50.0 mg/kg/injection, schedule: Q04DX004 (ip), vehicle: suspension in saline) 98 % of control and 107 % of control.
Take `S=c1sc2ccccc2n1CN1CCOCC1`: the T/C is 105 % of control and 107 % of control under setting [5]; 95 % of control and 111 % of control under setting [6]; 90 % of control and 104 % of control under setting [7]; 96 % of control and 97 % of control under setting [8].
With `Nc1nc(N)c2cc(C=O)ccc2n1`, the T/C is 91 % of control and 98 % of control (dose: 3.13 mg/kg/injection, schedule: Q04DX004 (ip), vehicle: water); 94 % of control (dose: 6.25 mg/kg/injection, schedule: Q04DX004 (ip), vehicle: water); 101 % of control and 103 % of control (dose: 12.5 mg/kg/injection, schedule: Q04DX004 (ip), vehicle: water); 88 % of control (dose: 50.0 mg/kg/injection, schedule: Q04DX004 (ip), vehicle: water).
On to `c1ccc(-c2nc3cc4c(cc3n3cccc23)oc2ccccc24)cc1`, for which the T/C runs as follows: under setting [5], 90 % of control; under setting [6], 101 % of control; under setting [9], 91 % of control.
In the case of `O=C(CSc1nnc(CSc2ccc(Cl)cc2)n1-c1ccccc1)NC(=O)Nc1ccccc1`, the T/C reads like this: (dose: 4.69 mg/kg/injection, schedule: Q04DX004 (ip), vehicle: Klucel (hydroxypropylcellulose) (HPC)) 103 % of control; (dose: 9.38 mg/kg/injection, schedule: Q04DX004 (ip), vehicle: Klucel (hydroxypropylcellulose) (HPC)) 102 % of control; (dose: 18.75 mg/kg/injection, schedule: Q04DX004 (ip), vehicle: Klucel (hydroxypropylcellulose) (HPC)) 88 % of control; (dose: 37.5 mg/kg/injection, schedule: Q04DX004 (ip), vehicle: Klucel (hydroxypropylcellulose) (HPC)) 88 % of control and 89 % of control.
As for `Cn1c(=O)c2nncnc2n(C)c1=O`, the T/C was 94 % of control under setting [6], 96 % of control under setting [7] and 94 % of control under setting [8].
Take `C=C1C(O)C2(O)OCC34C(CC5C(C)=CC(=O)C(O)C5(C)C23)OC(=O)C(OC(=O)C/C=C/CCCCCCCC)C14` (stereo unspecified): the T/C was 96 % of control (dose: 2.0 mg/kg/injection, schedule: Q04DX004 (ip), vehicle: saline + alcohol); 116 % of control (dose: 2.88 mg/kg/injection, schedule: Q04DX004 (ip), vehicle: saline + alcohol); 112 % of control (dose: 2.89 mg/kg/injection, schedule: Q04DX004 (ip), vehicle: saline + alcohol); 107 % of control (dose: 4.0 mg/kg/injection, schedule: Q04DX004 (ip), vehicle: saline + alcohol); 110 % of control (dose: 4.8 mg/kg/injection, schedule: Q04DX004 (ip), vehicle: saline + alcohol); 124 % of control (dose: 13.33 mg/kg/injection, schedule: Q04DX004 (ip), vehicle: saline + alcohol). Further, the T/C (dose: 16.0 mg/kg/injection, schedule: Q04DX004 (ip), vehicle: saline + alcohol) is 114 % of control.
In the case of `CC1[C@@H]2CC=C3[C@H]4CCC5Cc6nc7c(nc6C[C@@]5(C)C4CC(=O)[C@]32CO[C@]12OC(C)(C)CC2O)CC1CC[C@@H]2C3=C[C@H]4O[C@@]5(O[C@@](C)(CO)C[C@@H]5O)C(C)[C@@]4(O)[C@]3(C)[C@@H](O)CC2[C@]1(C)C7` (stereo partly specified), the T/C (dose: 12.5 micrograms/kg/injection, schedule: Q04DX004 (ip), vehicle: saline + alcohol) was 98 % of control; the T/C (dose: 25.0 micrograms/kg/injection, schedule: Q04DX004 (ip), vehicle: saline + alcohol) was 94 % of control; the T/C (dose: 50.0 micrograms/kg/injection, schedule: Q04DX004 (ip), vehicle: saline + alcohol) was 102 % of control; the T/C (dose: 100.0 micrograms/kg/injection, schedule: Q04DX004 (ip), vehicle: saline + alcohol) was 103 % of control and 107 % of control; the T/C (dose: 200.0 micrograms/kg/injection, schedule: Q04DX004 (ip), vehicle: saline + alcohol) is 114 % of control.
Regarding `CSC1SCC2C(=O)N(C)C(C(C)C)C(=O)OCC(NC(=O)c3cnc4ccccc4n3)C(=O)NC(C)C(=O)N(C)C1C(=O)N(C)C(C(C)C)C(=O)OCC(NC(=O)c1cnc3ccccc3n1)C(=O)NC(C)C(=O)N2C` (stereo unspecified), the T/C by setting is: (dose: 12.5 micrograms/kg/injection, schedule: Q04DX004 (ip), vehicle: saline with Tween-80) 100 % of control; (dose: 25.0 micrograms/kg/injection, schedule: Q04DX004 (ip), vehicle: saline with Tween-80) 104 % of control; (dose: 50.0 micrograms/kg/injection, schedule: Q04DX004 (ip), vehicle: saline with Tween-80) 110 % of control and 111 % of control; (dose: 100.0 micrograms/kg/injection, schedule: Q04DX004 (ip), vehicle: saline with Tween-80) 114 % of control; (dose: 200.0 micrograms/kg/injection, schedule: Q04DX004 (ip), vehicle: saline with Tween-80) 123 % of control.
As to `NC(=O)c1ccc[n+](Cc2c(Cl)cccc2Cl)c1`, the T/C (dose: 12.5 mg/kg/injection, schedule: Q04DX004 (ip), vehicle: saline) is 100 % of control; the T/C (dose: 25.0 mg/kg/injection, schedule: Q04DX004 (ip), vehicle: saline) is 99 % of control; the T/C (dose: 50.0 mg/kg/injection, schedule: Q04DX004 (ip), vehicle: saline) was 100 % of control; the T/C (dose: 100.0 mg/kg/injection, schedule: Q04DX004 (ip), vehicle: saline) is 96 % of control.
As for `O=C1NC(=O)N(c2ccc(Cl)c(Cl)c2)C1=O`, the T/C runs as follows: under setting [1], 93 % of control; under setting [2], 95 % of control; under setting [3], 92 % of control; under setting [4], 89 % of control.
Consider `CCOc1ccc(C(C)c2cc3c(cc2OC)OCO3)cc1` (stereo unspecified), for which the T/C is 99 % of control and 102 % of control (dose: 62.5 mg/kg/injection, schedule: Q04DX004 (ip), vehicle: distilled water + Tween-80); 102 % of control and 124 % of control (dose: 125.0 mg/kg/injection, schedule: Q04DX004 (ip), vehicle: distilled water + Tween-80); 117 % of control (dose: 250.0 mg/kg/injection, schedule: Q04DX004 (ip), vehicle: distilled water + Tween-80).
Turning to `COC(=O)Nc1ccc(Cc2ccc(NC(=O)OC)cc2)cc1`, the T/C is 95 % of control under setting [6]; 93 % of control and 94 % of control under setting [7]; 103 % of control and 119 % of control under setting [8]; 153 % of control under setting [9]; 160 % of control (dose: 600.0 mg/kg/injection, schedule: Q04DX004 (ip), vehicle: saline with Tween-80).
As for `O=C(CCl)N1CCN(C/C=C/c2ccccc2)CC1`, the T/C is, setting by setting: (dose: 37.5 mg/kg/injection, schedule: Q04DX004 (ip), vehicle: saline) 106 % of control; (dose: 75.0 mg/kg/injection, schedule: Q04DX004 (ip), vehicle: saline) 96 % of control; (dose: 150.0 mg/kg/injection, schedule: Q04DX004 (ip), vehicle: saline) 96 % of control.
